# Laboratory results: ChEMBL document CHEMBL3885881, “DrugMatrix”
# Species: Rattus norvegicus
# Experiment: DrugMatrix - Regimen: Daily Repeat
# Format: toxicity, organism-based, Sprague-Dawley
# Design: regimen Daily Repeat, gender Male, age 6-8 weeks
# Conditions: in vivo, po, route oral GAVAGE, […]; for ABSOLUTE BASOPHIL / ABSOLUTE EOSINOPHIL / ABSOLUTE LYMPHOCYTE / ABSOLUTE MONOCYTE / ABSOLUTE SEGMENTED NEUTROPHIL / BASOPHIL / EOSINOPHIL / ERYTHROCYTE COUNT / HEMATOCRIT / HEMOGLOBIN / LEUKOCYTE COUNT / LYMPHOCYTE / MEAN CORPUSCULAR HEMOGLOBIN / MEAN CORPUSCULAR HEMOGLOBIN CONCENTRATION / MEAN CORPUSCULAR VOLUME / MONOCYTE / NEUTROPHIL / NUCLEATED RED BLOOD CELLS / PLATELET COUNT: tissue Blood; for ALANINE AMINOTRANSFERASE / ALBUMIN / ALKALINE PHOSPHATASE / ASPARTATE AMINOTRANSFERASE / BLOOD UREA NITROGEN / CARBON DIOXIDE / CHLORIDE / CHOLESTEROL / CREATINE PHOSPHOKINASE / CREATININE / GLUCOSE / LACTATE DEHYDROGENASE / LIPASE / PHOSPHORUS / POTASSIUM / SODIUM / TOTAL BILIRUBIN / TOTAL PROTEIN / URIC ACID: tissue Plasma
# [1] = 0 mg/kg, 72 h, dose level Control, time 3 day
# [2] = 0 mg/kg, 120 h, dose level Control, time 5 day
# [3] = 0 mg/kg, dose level Control, time 28 day
# [4] = 56 mg/kg, 72 h, dose level Low, time 3 day
smiles,measurement,setting,value
NC[C@@H]1O[C@H](O[C@H]2[C@@H](O)[C@H](O[C@@H]3[C@@H](O)[C@H](N)C[C@H](N)[C@H]3O[C@H]3O[C@H](CN)[C@@H](O)[C@H](O)[C@H]3N)O[C@@H]2CO)[C@H](N)[C@@H](O)[C@@H]1O [FRAMYCETIN],ABSOLUTE BASOPHIL,[1],0 CELLS/uL
same,ABSOLUTE EOSINOPHIL,[1],33 CELLS/uL
same,ABSOLUTE LYMPHOCYTE,[1],9048.5 CELLS/uL
same,ABSOLUTE MONOCYTE,[1],80.17 CELLS/uL
same,ABSOLUTE SEGMENTED NEUTROPHIL,[1],1521.67 CELLS/uL
same,BASOPHIL,[1],0%
same,EOSINOPHIL,[1],0.17%
same,ERYTHROCYTE COUNT,[1],5.46 x10E6/uL
same,HEMATOCRIT,[1],32.87%
same,HEMOGLOBIN,[1],12.95 G/DL
same,LEUKOCYTE COUNT,[1],10.68 x10E3/uL
same,LYMPHOCYTE,[1],86.67%
same,MEAN CORPUSCULAR HEMOGLOBIN,[1],23.72 pg
same,MEAN CORPUSCULAR HEMOGLOBIN CONCENTRATION,[1],39.4 G/DL
same,MEAN CORPUSCULAR VOLUME,[1],60.18 fL
same,MONOCYTE,[1],0.83%
same,NEUTROPHIL,[1],12.33%
same,NUCLEATED RED BLOOD CELLS,[1],0 /100WBC
same,PLATELET COUNT,[1],1211.33 x10E3/uL
same,ALANINE AMINOTRANSFERASE,[1],76.67 u/L
same,ALBUMIN,[1],3.93 G/DL
same,ALKALINE PHOSPHATASE,[1],317.17 u/L
same,ASPARTATE AMINOTRANSFERASE,[1],81.17 u/L
same,BLOOD UREA NITROGEN,[1],12.33 mg/dL
same,CARBON DIOXIDE,[1],31.17 mmol/L
same,CHLORIDE,[1],98.33 MEQ/L
same,CHOLESTEROL,[1],67.17 mg/dL
same,CREATINE PHOSPHOKINASE,[1],312.33 u/L
same,CREATININE,[1],0.19 mg/dL
same,GLUCOSE,[1],165.5 mg/dL
same,LACTATE DEHYDROGENASE,[1],94.5 u/L
same,LIPASE,[1],9.83 u/L
same,PHOSPHORUS,[1],10.1 mg/dL
same,POTASSIUM,[1],5.16 MEQ/L
same,SODIUM,[1],143.02 MEQ/L
same,TOTAL BILIRUBIN,[1],0.2 mg/dL
same,TOTAL PROTEIN,[1],5.88 G/DL
same,URIC ACID,[1],0.68 mg/dL
same,ABSOLUTE BASOPHIL,[2],0 CELLS/uL
same,ABSOLUTE EOSINOPHIL,[2],14.67 CELLS/uL
same,ABSOLUTE LYMPHOCYTE,[2],9629.83 CELLS/uL
same,ABSOLUTE MONOCYTE,[2],72.5 CELLS/uL
same,ABSOLUTE SEGMENTED NEUTROPHIL,[2],1049.67 CELLS/uL
same,NUCLEATED RED BLOOD CELLS,[2],0.17 /100WBC
same,CARBON DIOXIDE,[2],26.4 mmol/L
same,LACTATE DEHYDROGENASE,[2],83.5 u/L
same,LIPASE,[2],85.83 u/L
same,URIC ACID,[2],0.8 mg/dL
same,BASOPHIL,[3],0.42%
same,EOSINOPHIL,[3],0.58%
same,ERYTHROCYTE COUNT,[3],8.06 x10E6/uL
same,HEMATOCRIT,[3],48.44%
same,HEMOGLOBIN,[3],16.34 G/DL
same,LEUKOCYTE COUNT,[3],13.04 x10E3/uL
same,LYMPHOCYTE,[3],85.12%
same,MEAN CORPUSCULAR HEMOGLOBIN,[3],20.26 pg
same,MEAN CORPUSCULAR HEMOGLOBIN CONCENTRATION,[3],33.74 G/DL
same,MEAN CORPUSCULAR VOLUME,[3],60.1 fL
same,MONOCYTE,[3],1.44%
same,NEUTROPHIL,[3],11.28%
same,PLATELET COUNT,[3],1226 x10E3/uL
same,ALANINE AMINOTRANSFERASE,[3],28.6 u/L
same,ALBUMIN,[3],3.94 G/DL
same,ALKALINE PHOSPHATASE,[3],254.6 u/L
same,ASPARTATE AMINOTRANSFERASE,[3],67.8 u/L
same,BLOOD UREA NITROGEN,[3],10.4 mg/dL
same,CHLORIDE,[3],104.6 MEQ/L
same,CHOLESTEROL,[3],57.6 mg/dL
same,CREATINE PHOSPHOKINASE,[3],224.8 u/L
same,CREATININE,[3],0.4 mg/dL
same,GLUCOSE,[3],140.6 mg/dL
same,PHOSPHORUS,[3],10.66 mg/dL
same,POTASSIUM,[3],6.58 MEQ/L
same,SODIUM,[3],148.6 MEQ/L
same,TOTAL BILIRUBIN,[3],0.24 mg/dL
same,TOTAL PROTEIN,[3],6.64 G/DL
same,ABSOLUTE BASOPHIL,[4],0 CELLS/uL
same,ABSOLUTE EOSINOPHIL,[4],0 CELLS/uL
same,ABSOLUTE LYMPHOCYTE,[4],8427.33 CELLS/uL
same,ABSOLUTE MONOCYTE,[4],92.67 CELLS/uL
same,ABSOLUTE SEGMENTED NEUTROPHIL,[4],980 CELLS/uL
same,BASOPHIL,[4],0%
same,EOSINOPHIL,[4],0%
same,ERYTHROCYTE COUNT,[4],5.46 x10E6/uL
same,HEMATOCRIT,[4],33.8%
same,HEMOGLOBIN,[4],13.4 G/DL
same,LEUKOCYTE COUNT,[4],9.5 x10E3/uL
same,LYMPHOCYTE,[4],88.67%
same,MEAN CORPUSCULAR HEMOGLOBIN,[4],24.57 pg
same,MEAN CORPUSCULAR HEMOGLOBIN CONCENTRATION,[4],39.63 G/DL
same,MEAN CORPUSCULAR VOLUME,[4],61.9 fL
same,MONOCYTE,[4],1%
same,NEUTROPHIL,[4],10.33%
same,NUCLEATED RED BLOOD CELLS,[4],0 /100WBC
same,PLATELET COUNT,[4],1108.33 x10E3/uL
same,ALANINE AMINOTRANSFERASE,[4],81 u/L
same,ALBUMIN,[4],4.1 G/DL
same,ALKALINE PHOSPHATASE,[4],367.33 u/L
same,ASPARTATE AMINOTRANSFERASE,[4],87 u/L
same,BLOOD UREA NITROGEN,[4],11.67 mg/dL
same,CARBON DIOXIDE,[4],33.33 mmol/L
same,CHLORIDE,[4],97 MEQ/L
same,CHOLESTEROL,[4],89.67 mg/dL
same,CREATINE PHOSPHOKINASE,[4],277.67 u/L
